According to patent publication US8097650B2, “Method of treating a condition associated with phosphorylation of TASK-1” (The Trustees of Columbia University In The City of New York, priority 2005, dated 2012):

Legend:
[1] = target: T1, hTASK-1 (Homo sapiens, UniProt O14649); assay: hTASK-1 current in CHO cells (ramp clamp, pH 8); type: cell-based; conditions: Tyrode's pH 8; read-out: EC50 for activation of TASK-1 current
T1 construct: expressed in transfected cells; host or cells: CHO cells
Description: FIG. 21. CHO cells (hTREK-1, hTASK-1) or HEK cells (mTRAAK) were co-transfected with plasmids encoding one of the two pore domain channels and GFP using the GeneJammer reagent. After 48-60 h, the expressed current was measured using a ramp protocol while the cells were perfused with regular Tyrode's solution containing varying concentrations of ONO-RS-082 (range of concentration from 10 nM to 500 μM as noted in FIG. 21) until a steady state was reached. Each cell was exposed to only one concentration of drug. Panel A: TREK-1 current was determined using a ramp clamp, and the percent increase induced by ONO-RS-082 was measured at the most positive imposed voltage (n≧5). The EC50 for activation was around 3 μM and the basal and ONO-activated current densities are noted. Panel B: TASK-1 current was determined using a ramp clamp in Tyrode's solution at pH=8 and the percent increase induced by ONO-RS-082 was measured at the most positive imposed voltage (n≧4). The EC50 was around 8 μM and the basal and ONO-activated current densities are noted. Panel C: TRAAK current was determined using a ramp clamp, and the percent increase induced by ONO-RS-082 was measured at the most positive imposed voltage (n≧4). The EC50 was around 0.9 μM and the basal and ONO-activated current densities are noted.

[2] = tested on: atrial fibrillation; assay: Peri-operative atrial fibrillation dog model; type: in vivo
Description: FIG. 29. […] Peri-operative AF was induced in a dog three days after a right atriotomy by brief, rapid pacing. Routinely, this procedure results in AF that continues for at least 30 min and is only stopped by electrical cardioversion. Panel A depicts an EKG trace of the animal just prior to the induction of AF. This run of AF continued for 30 min and the animal was shocked into a normal sinus rhythm (NSR). After 15 min, a second run of AF was induced and a recording of the EKG obtained during this period of AF is shown in Panel B. 20 min later, ONO-RS-082 (0.7 mg/kg) was infused over 2 min. The heart rate slowed within 1 min of the administration of the drug and the EKG normalized within 5 min and persisted in NSR for over an hour at which point the experiment was terminated (Panel C).
Peri-operative AF was induced in a dog three days after a right atriotomy by brief, rapid pacing. Routinely, this procedure results in AF that continues for at least 30 min and is only stopped by electrical cardioversion. Panel A of FIG. 29 depicts an EKG trace of the animal just prior to the induction of AF. This run of AF continued for 30 min and the animal was shocked into a normal sinus rhythm (NSR). After 15 min, a second run of AF was induced and a recording of the EKG obtained during this period of AF is shown in Panel B. 20 min later, ONO-RS-082 (0.7 mg/kg) was infused over 2 min. Following administration of the drug, the heart rate slowed within 1 min of the administration of the drug and the EKG normalized within 5 min and persisted in NSR for over an hour at which point the experiment was terminated (FIG. 29, Panel C).

T1 sequence (O14649 whole entry): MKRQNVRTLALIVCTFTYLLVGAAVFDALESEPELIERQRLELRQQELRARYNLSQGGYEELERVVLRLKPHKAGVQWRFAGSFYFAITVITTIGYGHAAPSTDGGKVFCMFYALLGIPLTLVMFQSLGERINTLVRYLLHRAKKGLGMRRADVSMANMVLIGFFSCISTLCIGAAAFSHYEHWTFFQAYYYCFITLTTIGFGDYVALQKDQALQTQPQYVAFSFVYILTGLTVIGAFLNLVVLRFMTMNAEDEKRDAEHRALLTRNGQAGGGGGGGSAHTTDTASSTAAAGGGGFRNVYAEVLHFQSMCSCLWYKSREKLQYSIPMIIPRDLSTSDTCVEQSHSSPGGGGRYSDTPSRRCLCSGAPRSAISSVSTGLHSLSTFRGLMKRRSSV

Compound: CCCCCc1ccc(C=CC(=O)Nc2cc(Cl)ccc2C(=O)O)cc1 [ONO-RS-082]
- EC50 [1]: ~8 µM
- effect on atrial fibrillation ([2]; 0.7 mg/kg): halts atrial fibrillation
- persistence in normal sinus rhythm ([2]; 0.7 mg/kg infused over 2 min): over an hour
- time to normalization of EKG ([2]; 0.7 mg/kg infused over 2 min): ≤ 5 min
- time to slowing of heart rate after administration ([2]; 0.7 mg/kg infused over 2 min): ≤ 1 min
